For this test, the system named is BDF1 mice, B16 melanoma ip, median survival T/C. The test can be described thus: NCI In Vivo Anticancer Drug Screen. Data for tumor model B16 Melanoma (intraperitoneal) in B6D2F1 (BDF1) mice. The conditions noted are these: endpoint: median survival time, higher = longer survival. Put shortly: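 Each result divides a survival or tumor-size measurement in the compound-treated group by the same measurement in the vehicle group.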

Where [1] appears, read: dose: 12.5 mg/kg/injection, schedule: Q01DX009 (ip), vehicle: saline.
Where [2] appears, read: dose: 25.0 mg/kg/injection, schedule: Q01DX009 (ip), vehicle: saline.
Setting [3] is: dose: 50.0 mg/kg/injection, schedule: Q01DX009 (ip), vehicle: saline.
Where [4] appears, read: dose: 50.0 mg/kg/injection, schedule: Q01DX009 (ip), vehicle: Klucel (hydroxypropylcellulose) (HPC).
The mark [5] stands for this setting: dose: 100.0 mg/kg/injection, schedule: Q01DX009 (ip), vehicle: Klucel (hydroxypropylcellulose) (HPC).
The mark [6] stands for this setting: dose: 200.0 mg/kg/injection, schedule: Q01DX009 (ip), vehicle: Klucel (hydroxypropylcellulose) (HPC).
Setting [7] is: dose: 50.0 mg/kg/injection, schedule: Q01DX009 (ip), vehicle: saline with Tween-80.
The mark [8] stands for this setting: dose: 100.0 mg/kg/injection, schedule: Q01DX009 (ip), vehicle: saline with Tween-80.
Setting [9] is: dose: 200.0 mg/kg/injection, schedule: Q01DX009 (ip), vehicle: saline with Tween-80.
[10] abbreviates: dose: 400.0 mg/kg/injection, schedule: Q01DX009 (ip), vehicle: saline with Tween-80.

Values joined by “and” are separate entries in the source; they are usually repeats but may differ in a detail not shown here. Equal values may be shown once. Inconclusive results and toxic doses are left out. Peptide text beside a SMILES is read from it. * marks the point of attachment. Cbz = O=C(OCc1ccccc1)*

Results on 13 molecules are retold here after PubChem BioAssay AID192 (DTP/NCI, 2004).

For the molecule `N[C@@H](Cc1ccc(N(CCCl)CCCl)cc1)C(=O)O`, the T/C was 97 % of control (dose: 0.06 mg/kg/injection, schedule: Q01DX009 (ip), vehicle: saline); 102 % of control (dose: 0.12 mg/kg/injection, schedule: Q01DX009 (ip), vehicle: saline); 104 % of control (dose: 0.25 mg/kg/injection, schedule: Q01DX009 (ip), vehicle: saline); 95 % of control (dose: 0.5 mg/kg/injection, schedule: Q01DX009 (ip), vehicle: carboxymethylcellulose (CMC)); 123 % of control (dose: 0.5 mg/kg/injection, schedule: Q01DX009 (ip), vehicle: water); 151 % of control (dose: 0.75 mg/kg/injection, schedule: Q01DX009 (ip), vehicle: Klucel (hydroxypropylcellulose) (HPC)). Moreover, the T/C is, setting by setting: (dose: 0.75 mg/kg/injection, schedule: Q01DX009 (ip), vehicle: saline) 157 % of control; (dose: 1.0 mg/kg/injection, schedule: Q01DX009 (ip), vehicle: carboxymethylcellulose (CMC)) 88 % of control; (dose: 1.0 mg/kg/injection, schedule: Q01DX009 (ip), vehicle: saline with Tween-80) 180 % of control; (dose: 1.0 mg/kg/injection, schedule: Q01DX009 (ip), vehicle: water) 176 % of control; (dose: 1.2 mg/kg/injection, schedule: Q01DX009 (ip), vehicle: saline) 167 % of control; (dose: 1.25 mg/kg/injection, schedule: Q01DX001 (ip), vehicle: water) 123 % of control. In addition, the T/C reads like this: (dose: 1.5 mg/kg/injection, schedule: Q01DX009 (ip), vehicle: Klucel (hydroxypropylcellulose) (HPC)) 188 % of control; (dose: 1.5 mg/kg/injection, schedule: Q01DX009 (ip), vehicle: carboxymethylcellulose (CMC)) 180 % of control; (dose: 1.5 mg/kg/injection, schedule: Q01DX009 (ip), vehicle: saline) 166 % of control and 197 % of control; (dose: 2.0 mg/kg/injection, schedule: Q01DX009 (ip), vehicle: carboxymethylcellulose (CMC)) 95 % of control; (dose: 2.0 mg/kg/injection, schedule: Q01DX009 (ip), vehicle: saline with Tween-80) 254 % of control; (dose: 2.0 mg/kg/injection, schedule: Q01DX009 (ip), vehicle: water) 188 % of control. Also, the T/C is, setting by setting: (dose: 2.5 mg/kg/injection, schedule: Q01DX001 (ip), vehicle: Klucel (hydroxypropylcellulose) (HPC)) 164 % of control; (dose: 3.0 mg/kg/injection, schedule: Q01DX009 (ip), vehicle: Klucel (hydroxypropylcellulose) (HPC)) 198 % of control; (dose: 3.0 mg/kg/injection, schedule: Q01DX009 (ip), vehicle: saline) 171 % of control and 262 % of control; (dose: 3.3 mg/kg/injection, schedule: Q01DX009 (ip), vehicle: saline) 218 % of control; (dose: 4.0 mg/kg/injection, schedule: Q01DX009 (ip), vehicle: carboxymethylcellulose (CMC)) 94 % of control; (dose: 4.0 mg/kg/injection, schedule: Q01DX009 (ip), vehicle: saline with Tween-80) 200 % of control. The T/C was 161 % of control (dose: 4.0 mg/kg/injection, schedule: Q01DX009 (ip), vehicle: water); 194 % of control (dose: 4.0 mg/kg/injection, schedule: Q04DX003 (ip), vehicle: saline); 222 % of control (dose: 5.0 mg/kg/injection, schedule: Q01DX001 (ip), vehicle: Klucel (hydroxypropylcellulose) (HPC)); 156 % of control (dose: 5.0 mg/kg/injection, schedule: Q01DX005 (ip), vehicle: saline); 106 % of control and 117 % of control (dose: 6.0 mg/kg/injection, schedule: Q01DX009 (ip), vehicle: carboxymethylcellulose (CMC)); 118 % of control (dose: 6.0 mg/kg/injection, schedule: Q01DX009 (ip), vehicle: saline). The T/C is 179 % of control (dose: 6.0 mg/kg/injection, schedule: Q04DX003 (ip), vehicle: Klucel (hydroxypropylcellulose) (HPC)); 231 % of control (dose: 8.0 mg/kg/injection, schedule: Q04DX003 (ip), vehicle: saline); 242 % of control (dose: 10.0 mg/kg/injection, schedule: Q01DX001 (ip), vehicle: Klucel (hydroxypropylcellulose) (HPC)); 191 % of control (dose: 10.0 mg/kg/injection, schedule: Q01DX001 (ip), vehicle: water); 194 % of control (dose: 10.0 mg/kg/injection, schedule: Q01DX005 (ip), vehicle: saline); 169 % of control (dose: 12.0 mg/kg/injection, schedule: Q04DX003 (ip), vehicle: Klucel (hydroxypropylcellulose) (HPC)). Further, for the setting “dose: 16.0 mg/kg/injection, schedule: Q04DX003 (ip), vehicle: saline”, the T/C is 169 % of control.
As for `CN1CC[C@]23c4c5ccc(O)c4O[C@H]2C(=O)CC[C@H]3[C@H]1C5`, the T/C (dose: 12.5 mg/kg/injection, schedule: Q01DX005 (iv), vehicle: saline) is 86 % of control; the T/C under setting [1] is 94 % of control; the T/C (dose: 25.0 mg/kg/injection, schedule: Q01DX005 (iv), vehicle: saline) was 111 % of control; the T/C under setting [2] was 98 % of control; the T/C (dose: 50.0 mg/kg/injection, schedule: Q01DX005 (iv), vehicle: saline) was 95 % of control; the T/C under setting [3] is 100 % of control.
In the case of `CCCCCCN(CCCCCC)CC(O)c1ccc2c3c(cccc13)CC2` (stereo not drawn), the T/C under setting [4] is 105 % of control, the T/C under setting [5] is 98 % of control and the T/C under setting [6] was 101 % of control.
Regarding `Cc1ccc(C)n1-c1ccccc1`, the T/C reads like this: (dose: 100.0 mg/kg/injection, schedule: Q01DX009 (ip), vehicle: saline + alcohol) 101 % of control; (dose: 200.0 mg/kg/injection, schedule: Q01DX009 (ip), vehicle: saline + alcohol) 99 % of control.
Take `O=C(O)c1cccc(S(=O)(=O)N(CCO)CCO)c1`: the T/C reads like this: under setting [1], 95 % of control; under setting [2], 97 % of control; under setting [7], 91 % of control; under setting [3], 92 % of control.
`COCc1cc(C(C)(C)C)c(O)c(C(C)(C)C)c1`: the T/C under setting [5] is 90 % of control; the T/C under setting [6] is 92 % of control; the T/C (dose: 400.0 mg/kg/injection, schedule: Q01DX009 (ip), vehicle: Klucel (hydroxypropylcellulose) (HPC)) is 95 % of control.
For `CCOc1ccc(NC(=O)C(C)O)cc1` (stereo not drawn), the T/C reads like this: under setting [8], 97 % of control; under setting [9], 97 % of control; under setting [10], 91 % of control.
Consider `COc1cc2c(cc1OC)C(CN)C2` (stereo not drawn), for which the T/C is 94 % of control under setting [4] and 97 % of control under setting [5].
In the case of `N=C1SCc2ccc3ccccc3c21`, the T/C is 99 % of control under setting [7], 97 % of control under setting [8], 91 % of control under setting [9] and 89 % of control under setting [10].
As to `O=C(O)C(O)C(O)C(O)C(O)C(=O)O` (stereo not drawn), the T/C is 100 % of control (dose: 300.0 mg/kg/injection, schedule: Q01DX009 (ip), vehicle: Klucel (hydroxypropylcellulose) (HPC)); 93 % of control (dose: 600.0 mg/kg/injection, schedule: Q01DX009 (ip), vehicle: Klucel (hydroxypropylcellulose) (HPC)); 91 % of control (dose: 900.0 mg/kg/injection, schedule: Q01DX009 (ip), vehicle: Klucel (hydroxypropylcellulose) (HPC)).
Regarding `Nc1nc2c(ncn2C2OC(CO)C(O)C2O)c(=O)[nH]1` (stereo not drawn), the T/C is, setting by setting: (dose: 25.0 mg/kg/injection, schedule: Q01DX009 (ip), vehicle: suspension in saline) 101 % of control; (dose: 50.0 mg/kg/injection, schedule: Q01DX009 (ip), vehicle: suspension in saline) 110 % of control; (dose: 100.0 mg/kg/injection, schedule: Q01DX009 (ip), vehicle: suspension in saline) 113 % of control; (dose: 400.0 mg/kg/injection, schedule: Q01DX009 (ip), vehicle: suspension in saline) 116 % of control.
On to `COC(=O)C1CCCN1C(=O)C(CCCCNC(=O)OCc1ccccc1)NC(=O)OCc1ccccc1` (stereo not drawn) (Cbz-Lys(Cbz)-Pro-OMe; configuration not given here), for which the T/C is 94 % of control (dose: 25.0 mg/kg/injection, schedule: Q01DX009 (ip), vehicle: saline with Tween-80); 98 % of control under setting [7]; 112 % of control under setting [8]; 108 % of control under setting [9].
As to `CC1(C)c2ccccc2C(C)(O)c2ccccc21`, the T/C is 102 % of control (dose: 50.0 mg/kg/injection, schedule: Q04DX003 (ip), vehicle: saline with Tween-80); 111 % of control (dose: 100.0 mg/kg/injection, schedule: Q04DX003 (ip), vehicle: saline with Tween-80); 94 % of control (dose: 200.0 mg/kg/injection, schedule: Q04DX003 (ip), vehicle: saline with Tween-80).
